Results reported in the NIST ThermoML archive (doi:10.1021/je800468h).
± gives the expanded uncertainty stated by the source.

What was measured:
[1] = xn = mol fraction of the nth substance listed; conditions: 298.15 K, 101 kPa, Liquid; for electrical conductivity: Alternating current cell with electrodes; for mass density: Vibrating tube method
[2] = 298.15 K, 101 kPa, Liquid

CCCCn1cc[n+](C)c1.F[B-](F)(F)F [1-butyl-3-methylimidazolium tetrafluoroborate] + C[S+](C)[O-]
[1]
Conditions	electrical conductivity [S/m]	mass density [kg/m3]
x1 = 0.01925	0.687 ± 0.007	1101.56 ± 0.13
x1 = 0.03427	1.029 ± 0.01	1106.21 ± 0.14
x1 = 0.07837	1.56 ± 0.016	1117.8 ± 0.16
x1 = 0.1247	1.715 ± 0.017	1128.31 ± 0.2
x1 = 0.1866	1.67 ± 0.017	1139.5 ± 0.32
x1 = 0.2554	1.502 ± 0.015	1150.71 ± 0.53
x1 = 0.3251	1.31 ± 0.013	1159.4 ± 0.81
x1 = 0.4423	1.015 ± 0.01	1171.71 ± 1.5
x1 = 0.5246	0.854 ± 0.009	1178.2 ± 2.1
x1 = 0.6132	0.711 ± 0.007	1184.27 ± 2.8
x1 = 0.7494	0.543 ± 0.005	1192.13 ± 4.3

CCn1cc[n+](C)c1.F[B-](F)(F)F [1-ethyl-3-methylimidazolium tetrafluoroborate] + O
[1]
Conditions	electrical conductivity [S/m]	mass density [kg/m3]
x1 = 0.004746	1.87 ± 0.019	1007.69 ± 0.12
x1 = 0.01001	3.26 ± 0.03	1018.31 ± 0.12
x1 = 0.02226	5.35 ± 0.05	1040.22 ± 0.13
x1 = 0.03637	6.81 ± 0.07	1061.36 ± 0.14
x1 = 0.05733	8.08 ± 0.08	1087.31 ± 0.16
x1 = 0.08102	8.84 ± 0.09	1110.93 ± 0.18
x1 = 0.115	9.24 ± 0.09	1136.45 ± 0.22
x1 = 0.174	9.08 ± 0.09	1168.6 ± 0.35
x1 = 0.2564	8.13 ± 0.08	1198.61 ± 0.64
x1 = 0.419	5.99 ± 0.06	1233.28 ± 1.6
x1 = 1	1.55 ± 0.016	1283.7 ± 9

CCCCn1cc[n+](C)c1.F[P-](F)(F)(F)(F)F [1-butyl-3-methylimidazolium hexafluorophosphate]
[2]
Conditions	electrical conductivity [S/m]	mass density [kg/m3]
Alternating current cell with electrodes	0.147 ± 0.0015	–
Vibrating tube method	–	1368.32 ± 10

CCCCn1cc[n+](C)c1.N#CN=C=[N-] [1-butyl-3-methylimidazolium dicyanamide] + O
[1]
Conditions	electrical conductivity [S/m]	mass density [kg/m3]
x1 = 0.009639	2.02 ± 0.02	1003.22 ± 0.12
x1 = 0.02791	3.49 ± 0.04	1011.25 ± 0.12
x1 = 0.05432	4.43 ± 0.04	1019.63 ± 0.13
x1 = 0.07995	4.8 ± 0.05	1025.43 ± 0.14
x1 = 0.1112	4.9 ± 0.05	1031.05 ± 0.16
x1 = 0.1933	4.47 ± 0.05	1040.01 ± 0.29
x1 = 0.3214	3.55 ± 0.04	1047.31 ± 0.67
x1 = 0.4686	2.71 ± 0.03	1051.86 ± 1.3
x1 = 0.6386	2 ± 0.02	1055.38 ± 2.5
x1 = 0.8742	1.37 ± 0.014	1058.33 ± 4.6
x1 = 1	1.139 ± 0.011	1059.12 ± 6.1

CCCCn1cc[n+](C)c1.F[B-](F)(F)F [1-butyl-3-methylimidazolium tetrafluoroborate] + CO
[1]
Conditions	electrical conductivity [S/m]	mass density [kg/m3]
x1 = 0.007409	0.867 ± 0.009	802.48 ± 0.15
x1 = 0.01543	1.45 ± 0.015	818.28 ± 0.15
x1 = 0.02435	1.97 ± 0.02	834.29 ± 0.15
x1 = 0.03355	2.4 ± 0.02	849.76 ± 0.15
x1 = 0.05717	3.3 ± 0.03	885.02 ± 0.16
x1 = 0.08589	3.81 ± 0.04	921.13 ± 0.18
x1 = 0.1242	4.18 ± 0.04	961.01 ± 0.2
x1 = 0.1755	4.26 ± 0.04	1002.48 ± 0.26
x1 = 0.248	3.92 ± 0.04	1046.31 ± 0.45
x1 = 0.3624	3.09 ± 0.03	1094.85 ± 0.92
x1 = 0.5583	1.76 ± 0.018	1145.28 ± 2.2
